Data reported in patent publication US20250351832A1, “PHYTOCHEMICALS AS BIOPESTICIDES AND BIOSTIMULANTS” (KAY BEE BIO ORGANICS PVT. LTD., priority 2024, published 2025).
Where two headings read alike, the source gives them in different places.

Assays:
Thrips [1] = conditions: 48 h
Aphid [2] = conditions: 48 h, 1 mL or g/L
Mite [3] = assay: Green house effect on mite, okra plants (Ex. 23); conditions: in vivo
tomato seedlings = assay: Response of tomato plants, greenhouse growth (Ex. 30); assay type: in vivo; conditions: tomato seedlings, dose 1 ml/gm/lit
Mite [4] = conditions: Dose 1 ml/gm/lit.; 48 hrs
Spodoptera litura [5] = assay: Controlled conditions, Spodoptera litura on cabbage plants (Ex. 26); conditions: in vivo
Helicoverpa armigera [6] = assay: In vitro bio-efficacy against Helicoverpa armigera (Ex. 17); conditions: in vivo
Aphid [7] = test system: Aphid
Aphid [8] = assay: whole plant or invertebrate; conditions: 48 h
Alternaria alternata [9] = assay: Alternaria leaf spot/blight on inoculated tomato plants (Ex. 28); assay type: in vivo; conditions: tomato plants, Alternaria alternata; after 7 days; dose 1 ml/gm/lit
Alternaria alternata [10] = assay: In vitro poisoned food technique against fungus (Ex. 20); assay type: cell-based; conditions: poisoned food technique, PDA medium, dose 1 ml/gm/lit., after seven days
Helicoverpa armigera [11] = assay: Controlled conditions, Helicoverpa armigera on chickpea plants (Ex. 25); conditions: in vivo
[12] = cited from earlier work
Thrips [13] = assay: whole plant or invertebrate; conditions: in Gossypium hirsutum, 48 h
Thrips [14] = assay: Greenhouse effect on thrips, cotton plants (Ex. 27); conditions: in vivo
Spodoptera litura [15] = conditions: 72 h, 1 mL or g/L
Spodoptera litura [16] = assay: whole plant or invertebrate; conditions: 72 h
Mealy Bug [17] = assay: In vitro bio-efficacy against mealy bug (Ex. 16); conditions: in vivo
Thrips [18] = conditions: 48 h, 1 mL or g/L
chili seedlings = assay: Response of chili plants, greenhouse growth (Ex. 31); assay type: in vivo
Mealy Bug [19] = assay: Green house effect on mealy bugs, cotton plants (Ex. 24); conditions: in vivo
[20] = read-out: % Corrected Mortality at 48 Hrs.
[21] = read-out: % Mortality at 48 Hrs.
[22] = Table 13, descriptive, no test described
[23] = chili seedlings, dose 1 ml/gm/lit, 5th day after application
[24] = chili seedlings, dose 1 ml/gm/lit, 10th day
[25] = chili seedlings, dose 1 ml/gm/lit, 10th day after application

SMILES: C=CCc1ccc(OC)c(O)c1 [Chavibetol]
- Total No. of dead insect at 48 Hrs. (Thrips [1]): 52.50
- Total No. of dead insect at 48 Hrs. (Aphid [2]): 55.00
- % Corrected Mortality at 48 Hrs. (Mite [3]): 18.42%
- % Mortality at 48 Hrs. (Mite [3]): 22.50%
- Plant Height 5th Day (tomato seedlings; 5th day after application): 7.26 cm
- Stem Girth 5th Day (tomato seedlings; 5th day after application): 1.49 mm
- Plant Height 10th Day (tomato seedlings; 10th day after application): 8.34 cm
- Stem Girth 10th Day (tomato seedlings; 10th day after application): 2.25 mm
- Plant Height % Increase over pre on 10th Day (tomato seedlings; 10th day): 36.50%
- Stem Girth % Increase over pre on 10th Day (tomato seedlings; 10th day): 60.71%
- CCI 5th Day (tomato seedlings; 5th day after application): 14.68
- CCI % Increase over pre on 10th Day (tomato seedlings; 10th day): 32.22%
- Root Length (cm) 10th Day (tomato seedlings; 10th day): 4.69 cm
- CCI 10th Day (tomato seedlings; 10th day after application): 16.58
- Root Length % Increase over control (tomato seedlings; 10th day, vs water control): 41.03%
- % Corrected Mortality at 48 Hrs. (Mite [4]): 18.92%
- % Mortality at 48 Hrs. (Mite [4]): 25.00%
- % Corrected Mortality at 72 Hrs. (Spodoptera litura [5]): 41.05%
- % Mortality at 72 Hrs. (Spodoptera litura [5]): 44.00%
- % Corrected Mortality at 72 Hrs. (Helicoverpa armigera [6]): 42.50%
- % Mortality at 72 Hrs. (Helicoverpa armigera [6]): 42.50%
- Total No. of dead insect at 48 Hrs. (Aphid [7]; 48 h): 5.50
- % Corrected Mortality at 48 Hrs. (Aphid [7]; Dose 1 ml/gm/lit., 48 hrs): 48.57%
- mortality at 1 mL or g/L (Aphid [8]; [20]): 47.1%
- mortality at 1 mL or g/L (Aphid [8]; [21]): 55%
- % Disease reduction over Control (Alternaria alternata [9]): 47.11%
- Mean colony Diameter (mm) (Alternaria alternata [10]): 55.50 mm
- inhibition of growth at 1 mL or g/L (Alternaria alternata [10]; vs untreated control, read-out: % Inhibition of growth): 36.9%
- % Corrected Mortality at 72 Hrs. (Helicoverpa armigera [11]): 47.50%
- % Mortality at 72 Hrs. (Helicoverpa armigera [11]): 47.50%
- Antioxidant Activity - Mode of action [12, 22]: Increasing Antioxidative
- Bactericidal Activity - Mode of action [12, 22]: Inhibit the reproduction
- Insecticidal Activities - Mode of action [12, 22]: Repellent
- Phytotonic Effect ([12]; Table 13, effect on plants, descriptive): trigger seed
- mortality at 1 mL or g/L (Thrips [13]; [20]): 45.7%
- mortality at 1 mL or g/L (Thrips [13]; [21]): 52.5%
- % Corrected Mortality at 48 Hrs. (Thrips [14]): 47.22%
- Total No. of dead insect at 72 Hrs. (Spodoptera litura [15]): 4.25
- mortality at 1 mL or g/L (Spodoptera litura [16]; read-out: % Corrected Mortality at 72 Hrs.): 39.5%
- mortality at 1 mL or g/L (Spodoptera litura [16]; read-out: % Mortality at 72 Hrs.): 42.5%
- % Corrected Mortality at 48 Hrs. (Mealy Bug [17]): 36.84%
- % Mortality at 48 Hrs. (Mealy Bug [17]): 40.00%
- Total No. of dead insect at 48 Hrs. (Thrips [18]): 5.25
- CCI Pre (chili seedlings): 9.82
- Plant Height (cm) Pre (chili seedlings): 4.39 cm
- CCI 5th Day (chili seedlings; [23]): 14.58
- Plant Height (cm) 5th Day (chili seedlings; [23]): 5.07 cm
- CCI % Increase over pre on 10th Day (chili seedlings; [24]): 52.55%
- Plant Height % Increase over pre on 10th Day (chili seedlings; [24]): 59.00%
- Root Lenght (cm) 10th Day (chili seedlings; [24]): 3.60 cm
- Stem Girth % Increase over pre on 10th Day (chili seedlings; [24]): 45.45%
- CCI 10th Day (chili seedlings; [25]): 14.98
- Plant Height (cm) 10th Day (chili seedlings; [25]): 6.98 cm
- Root Lenght % Increase over control (chili seedlings; chili seedlings, dose 1 ml/gm/lit, 10th day, vs water control): 31.63%
- % Corrected Mortality at 48 Hrs. (Mealy Bug [19]): 38.89%
- % Mortality at 48 Hrs. (Mealy Bug [19]): 45.00%
